Results taken from patent US20260256792A1, “TREATMENT OF CHRONIC SPONTANEOUS URTICARIA BY ADMINISTERING (R)-2-[3-[4-AMINO-3-(2-FLUORO-4-PHENOXY-PHENYL)PYRAZOLO[3,4-D]PYRIMIDIN-1-YL]PIPERIDINE-1-CARBONYL]-4-METHYL-4-[4-(OXETAN-3-YL)PIPERAZIN-1-YL]PENT-2-ENENITRILE” (priority 2023, published 2026).

Test system: moderate-to-severe chronic spontaneous urticaria (CSU)
Test: Phase 2 CSU study: itch severity score over 7 days (ISS7)
Format: in vivo, human
Details: Omalizumab-Naïve
Text: The study comprises a 12 week, randomized, double-blind, placebo-controlled, multi-center, dose-ranging efficacy and safety phase, followed by a 40 week open label extension (OLE) phase (see FIG. 1). The study consists of three phases and an optional OLE phase. […] Clinically, CSU is characterized by the spontaneous and recurrent appearance of pruritic hives. The proposed primary endpoints were the UAS7 at Week 12 in EU and EU reference countries and the ISS7 in the US. Regardless of where a participant was from, all assessments were the same. The UAS7 score is a composite score containing both the HSS7 and the ISS7. This allowed a global assessment of the two key components of urticaria: hives and itch. […] The UAS is a validated PRO measure. […] The daily UAS scores range from 0 to 6 point/day. […] Patients were to complete the UAS using the e-diary. […] The following secondary endpoints were to be analyzed using the same approach as for the primary endpoint: • Change from baseline in UAS7 at Week 4 • Change from baseline in UAS7 at Week 12 (for US and US reference countries) • Change from baseline in ISS7 at Week 12 (except US and US reference countries) • Change from baseline in HSS7 at Week 12

## CC(C)(C=C(C#N)C(=O)N1CCC[C@@H](n2nc(-c3ccc(Oc4ccccc4)cc3F)c3c(N)ncnc32)C1)N1CCN(C2COC2)CC1 [rilzabrutinib, (R)-2-[3-[4-amino-3-(2-fluoro-4-phenoxy-phenyl)pyrazolo[3,4-d]pyrimidin-1-yl]piperidine-1-carbonyl]-4-methyl-4-[4-(oxetan-3-yl)piperazin-1-yl]pent-2-enenitrile]
Outlier removed, 400 mg TID, Week 1
  ISS7 Post-baseline Mean (SD): 9.79 (5.47)
Outlier removed, 400 mg TID, Week 2
  ISS7 Post-baseline Mean (SD): 8.59 (5.80)
Outlier removed, 400 mg TID, Week 3
  ISS7 Post-baseline Mean (SD): 8.18 (5.41)
Outlier removed, 400 mg TID, Week 4
  ISS7 Post-baseline Mean (SD): 7.79 (5.03)
Outlier removed, 400 mg TID, Week 5
  ISS7 Post-baseline Mean (SD): 6.92 (5.87)
Outlier removed, 400 mg TID, Week 6
  ISS7 Post-baseline Mean (SD): 7.32 (6.05)
Outlier removed, 400 mg TID, Week 7
  ISS7 Post-baseline Mean (SD): 7.14 (5.35)
Outlier removed, 400 mg TID, Week 8
  ISS7 Post-baseline Mean (SD): 7.24 (5.51)
Outlier removed, 400 mg TID, Week 9
  ISS7 Post-baseline Mean (SD): 6.68 (5.31)
Outlier removed, 400 mg TID, Week 10
  ISS7 Post-baseline Mean (SD): 6.75 (5.25)
Outlier removed, 400 mg TID, Week 11
  ISS7 Post-baseline Mean (SD): 6.99 (5.53)
Outlier removed, 400 mg TID, Week 12
  ISS7 Post-baseline Mean (SD): 5.77 (5.26)
400 mg BID, Week 1
  ISS7 % Change difference for rilzabrutinib vs. placebo LS Mean (95% CI): −23.80 (−38.99, −8.60) %
  ISS7 % Change from baseline LS Mean (SE): −33.92 (5.73) %
  ISS7 Change difference for rilzabrutinib vs. placebo LS Mean (95% CI): −3.14
  ISS7 Change from baseline LS Mean (SE): −5.06 (0.83)
400 mg BID, Week 2
  ISS7 % Change difference for rilzabrutinib vs. placebo LS Mean (95% CI): −17.28 (−32.06, −2.50) %
  ISS7 % Change from baseline LS Mean (SE): −35.92 (5.58) %
  ISS7 Change difference for rilzabrutinib vs. placebo LS Mean (95% CI): −2.26
  ISS7 Change from baseline LS Mean (SE): −5.49 (0.83)
  ISS7 Post-baseline Mean (SD): 10.32 (5.64)
400 mg BID, Week 3
  ISS7 % Change difference for rilzabrutinib vs. placebo LS Mean (95% CI): −20.30 (−35.19, −5.41) %
  ISS7 % Change from baseline LS Mean (SE): −40.91 (5.60) %
  ISS7 Change difference for rilzabrutinib vs. placebo LS Mean (95% CI): −2.82
  ISS7 Change from baseline LS Mean (SE): −6.52 (0.87)
  ISS7 Post-baseline Mean (SD): 9.16 (6.09)
400 mg BID, Week 4
  ISS7 % Change difference for rilzabrutinib vs. placebo LS Mean (95% CI): −20.53 (−36.37, −4.69) %
  ISS7 % Change from baseline LS Mean (SE): −43.47 (5.96) %
  ISS7 Change difference for rilzabrutinib vs. placebo LS Mean (95% CI): −2.86
  ISS7 Change from baseline LS Mean (SE): −6.96 (0.93)
  ISS7 Post-baseline Mean (SD): 8.32 (6.02)
400 mg BID, Week 5
  ISS7 Post-baseline Mean (SD): 8.88 (6.81)
400 mg BID, Week 6
  ISS7 Post-baseline Mean (SD): 8.85 (6.40)
400 mg BID, Week 7
  ISS7 Post-baseline Mean (SD): 8.21 (6.16)
400 mg BID, Week 8
  ISS7 Post-baseline Mean (SD): 7.33 (6.55)
400 mg BID, Week 9
  ISS7 Post-baseline Mean (SD): 7.63 (7.11)
400 mg BID, Week 10
  ISS7 Post-baseline Mean (SD): 8.17 (7.29)
400 mg BID, Week 11
  ISS7 Post-baseline Mean (SD): 7.93 (6.94)
400 mg BID, Week 12
  ISS7 % Change difference for rilzabrutinib vs. placebo LS Mean (95% CI): −14.10 (−32.26, 4.06) %
  ISS7 % Change from baseline LS Mean (SE): −48.31 (6.75) %
  ISS7 Change difference for rilzabrutinib vs. placebo LS Mean (95% CI): −1.96
  ISS7 Change from baseline LS Mean (SE): −7.73 (1.06)
  ISS7 Post-baseline Mean (SD): 8.09 (6.95)
400 mg QPM, Week 1
  ISS7 % Change difference for rilzabrutinib vs. placebo LS Mean (95% CI): −8.25 (−23.30, 6.80) %
  ISS7 % Change from baseline LS Mean (SE): −18.38 (5.55) %
  ISS7 Change difference for rilzabrutinib vs. placebo LS Mean (95% CI): −1.33
  ISS7 Change from baseline LS Mean (SE): −3.25 (0.80)
  ISS7 Post-baseline Mean (SD): 13.08 (4.52)
400 mg QPM, Week 2
  ISS7 % Change difference for rilzabrutinib vs. placebo LS Mean (95% CI): −5.32 (−19.96, 9.32) %
  ISS7 % Change from baseline LS Mean (SE): −23.96 (5.37) %
  ISS7 Change difference for rilzabrutinib vs. placebo LS Mean (95% CI): −0.76
  ISS7 Change from baseline LS Mean (SE): −3.99 (0.80)
400 mg QPM, Week 3
  ISS7 % Change difference for rilzabrutinib vs. placebo LS Mean (95% CI): −8.38 (−23.14, 6.38) %
  ISS7 % Change from baseline LS Mean (SE): −28.99 (5.42) %
  ISS7 Change difference for rilzabrutinib vs. placebo LS Mean (95% CI): −1.12
  ISS7 Change from baseline LS Mean (SE): −4.82 (0.85)
  ISS7 Post-baseline Mean (SD): 11.60 (4.68)
400 mg QPM, Week 4
  ISS7 % Change difference for rilzabrutinib vs. placebo LS Mean (95% CI): −7.02 (−22.76, 8.71) %
  ISS7 % Change from baseline LS Mean (SE): −29.97 (5.75) %
  ISS7 Change difference for rilzabrutinib vs. placebo LS Mean (95% CI): −0.93
  ISS7 Change from baseline LS Mean (SE): −5.03 (0.89)
  ISS7 Post-baseline Mean (SD): 11.39 (4.79)
400 mg QPM, Week 5
  ISS7 Post-baseline Mean (SD): 11.00 (4.68)
400 mg QPM, Week 6
  ISS7 Post-baseline Mean (SD): 10.27 (5.26)
400 mg QPM, Week 7
  ISS7 Post-baseline Mean (SD): 10.68 (5.34)
400 mg QPM, Week 8
  ISS7 Post-baseline Mean (SD): 10.72 (5.26)
400 mg QPM, Week 10
  ISS7 Post-baseline Mean (SD): 10.43 (5.30)
400 mg QPM, Week 11
  ISS7 Post-baseline Mean (SD): 11.03 (5.55)
400 mg QPM, Week 12
  ISS7 % Change difference for rilzabrutinib vs. placebo LS Mean (95% CI): −0.54 (−18.55, 17.47) %
  ISS7 % Change from baseline LS Mean (SE): −34.75 (6.64) %
  ISS7 Change difference for rilzabrutinib vs. placebo LS Mean (95% CI): 0.58
  ISS7 Change from baseline LS Mean (SE): −5.19 (1.02)
400 mg TID, Week 1
  ISS7 % Change from baseline LS Mean (SE): −37.45 (5.78) %
  ISS7 Change difference for rilzabrutinib vs. placebo LS Mean (95% CI): −4.21
  ISS7 Change from baseline LS Mean (SE): −6.13 (0.82)
  ISS7 Post-baseline Mean (SD): 9.51 (5.64)
400 mg TID, Week 2
  ISS7 % Change difference for rilzabrutinib vs. placebo LS Mean (95% CI): −27.63 (−42.70, −12.56) %
  ISS7 % Change from baseline LS Mean (SE): −46.27 (5.61) %
  ISS7 Change difference for rilzabrutinib vs. placebo LS Mean (95% CI): −4.14
  ISS7 Change from baseline LS Mean (SE): −7.37 (0.82)
  ISS7 Post-baseline Mean (SD): 8.40 (5.82)
400 mg TID, Week 3
  ISS7 % Change difference for rilzabrutinib vs. placebo LS Mean (95% CI): −27.20 (−42.33, −12.08) %
  ISS7 % Change from baseline LS Mean (SE): −47.81 (5.64) %
  ISS7 Change difference for rilzabrutinib vs. placebo LS Mean (95% CI): −3.58
  ISS7 Change from baseline LS Mean (SE): −7.29 (0.87)
  ISS7 Post-baseline Mean (SD): 8.34 (5.42)
400 mg TID, Week 4
  ISS7 % Change difference for rilzabrutinib vs. placebo LS Mean (95% CI): −24.55 (−40.74, −8.36) %
  ISS7 % Change from baseline LS Mean (SE): −47.50 (6.02) %
  ISS7 Change difference for rilzabrutinib vs. placebo LS Mean (95% CI): −3.23
  ISS7 Change from baseline LS Mean (SE): −7.33 (0.92)
  ISS7 Post-baseline Mean (SD): 7.79 (5.03)
